In patent publication US20250170027A1, “COLLAGEN CROSS-LINKER AND USES THEREOF” (The Curators of the University of Missouri, priority 2022, published 2025):
Each block holds one compound with its values, some of them ahead of it.

Tests used:
[1] = tested on: mammalian collagen; test: Application of crosslinkers to mammalian collagen (biostability, general statement); conditions: application of any one of the crosslinkers to mammalian collagen
[2] = tested on: Clostridium histolyticum collagenase; conditions: after 1 hour incubation at 37° C.; 0.2 U/ml collagenase; EDTA 5 mM; FIG. 3
Procedure: The direct inactivation of collagenase by TRI was also determined using a collagenase assay kit. Assays were performed in 96-well microplates with 0.2 U/ml Clostridium histolyticum collagenase incubated with the treatment solutions for up to 24 h according to the manufacturer's instructions. The well-known collagenase inhibitor 5 mM EDTA was used as a positive control. A group without any treatment was included as a negative control. The fluorescence of kinetic of inactivation was monitored at 1, 2, 4, 16 and 24 h of incubation at 37° C. in triplicate at 490 nm/520 nm. Fluorescence at the different time points was determined by subtracting background fluorescence. The collagenase activity was expressed in arbitrary fluorescence units. Then, the activity was calculated in percentage of inhibition according to the untreated negative control (presumed 100% collagenase activity) after 4 h of incubation. Statistical analysis was performed by one-way ANOVA and Games Howell's post hoc (α=0.05).

[3] = tested on: dentin collagen; test: Biodegradation of dentin collagen by exogenous collagenase (weight loss, HYP release); type: biochemical, human; conditions: crosslinker 0.6 wt % in EtOH, 60 s or 1 h treatment; 0.1% collagenase 1 h at 37° C.; FIG. 2A
Procedure: Following the treatment and rinse, the dentin collagen films were dried (48 h under vacuum) and then exposed to 0.1% collagenase (type I, from Clostridium histolyticum, ≥125 U/mg) degradation for 1 h at 37° C. (n=6×10 films per group). The remnant films were dried as previously described and compared the weight percent before and after collagenase digestion for weight loss analysis (WL). The digestion solution was collected and processed to quantify the amount of HYP released. This processing comprised exposure to 5% Ehrlich's reagent, which binds to HYP and produces a colored solution, the color intensity of which is proportional to the concentration of HYP. Colorimetry was performed by measuring the absorbance at 555 nm in a microplate reader, thereby calculating the HYP μg/mg of collagen during digestion. […] All data for weight loss are separately shown after […] for each sample.

[4] = tested on: L929 cells; type: cell-based; conditions: dentin disks treated 1 min; 1 or 3 days exposure; FIGS. 6, 7
Procedure: (§1) The cells were seeded onto 24 and 96-well plates at a density of 2×10^4 cells/cm^2 and incubated at 37° C. in 5% CO2 and 95% relative humidity until the monolayer cells spread over the bottom of the wells.
Twenty-four teeth were sectioned obtaining 24-dentin disks (approximately 6-mm in diameter). The dentin disks were superficially etched using 32% phosphoric acid gel for 15 s on each side, rinsed thoroughly and placed in 100 μL of treatment solutions. After 1 min of treatment, the treated dentin disks were rinsed in sterile distilled water for 30 s. Treated dentin disks were immediately placed on a permeable polycarbonate membrane insert (6.5 mm in diameter, 3.0 μm pore size) above of cultured cells and covered with 100 μL of medium. After incubation, cell viability assay was used to stain live cells with calcein-AM and dead cells with ethidium homodimer. To distinguish overlapped cells in cell counting, Hoechst 33342 was used as a cell-permeant nuclear counterstain, following the guidelines specified by the manufacturer. Cells were imaged using a fluorescent High Content Microscope with 20× magnification. Cell counting was performed using ImageJ (NIH Image J1.8.0). The percentage of cell proliferation and dead cells were statistically compared to 1-day control using one-way ANOVA and Dunnett's test (α=0.05).

[5] = tested on: L929 cells; test: Effect of direct treatment on cell proliferation (MTS assay); type: cell-based; conditions: treatment solutions diluted 1:1000, 1:2000, 1:4000 (v/v) in culture medium; FIG. 5
Procedure: as §1
The direct treatments were conducted on 96-well plates with replacement of original culture medium with culture medium containing different diluted treatment solutions at ratios of 1:1000, 1:2000 and 1:4000 (v/v) and a control group containing only original culture medium. Cell proliferation was assessed with the MTS assay CellTiter 96 AQueous One Solution Cell Proliferation Assay following protocol guidelines specified by the manufacturer. Absorbance was measured using a multimode microplate reader at 460/30 nm at 2 h after addition of MTS reagent. Statistical analysis was performed using a two-way ANOVA for each used concentration followed by Tukey's post hoc (α=0.05).

SMILES: CCOC(=O)c1cc(C(=O)NCCc2ccc(O)c(O)c2)cc(C(=O)NCCc2ccc(O)c(O)c2)c1 [TRI-3]
biostability of mammalian collagen [1]: improves the biostability

SMILES: O=C(O)c1cc(C(=O)NCCc2ccc(O)c(O)c2)cc(C(=O)NCCc2ccc(O)c(O)c2)c1 [TRI-2]
biostability of mammalian collagen [1]: improves the biostability

SMILES: O=C(O)CN(CCN(CC(=O)O)CC(=O)O)CC(=O)O [EDTA, ethylenediaminetetraacetic acid]
collagenase inhibition [2]: some collagenase inhibition

weight % change (weight loss) before and after collagenase digestion [3]: not faring much better
SMILES: COC(=O)C1=CO[C@@H](O)[C@@H]2C(CO)=CC[C@H]12 [GEN, genipin]

weight % change (weight loss) before and after collagenase digestion [3]: not faring much better
SMILES: O=c1c(O)c(-c2ccc(O)c(O)c2)oc2cc(O)cc(O)c12 [QC, quercetin]

SMILES: O=C(NCCc1ccc(O)c(O)c1)c1cc(C(=O)NCCc2ccc(O)c(O)c2)cc(C(=O)NCCc2ccc(O)c(O)c2)c1 [TRI-1]
biostability of mammalian collagen [1]: improves the biostability

SMILES: O=CCCCC=O [GA, glutaraldehyde]
cytotoxic effect on L929 cells [4]: cytotoxic
cell proliferation (MTS absorbance) compared to the control sample [5]: high cytotoxicity
